melting point [°C]	SMILES
177 to 178	Cc1cccc(P(c2cccs2)c2cccs2)c1-c1c(C)cccc1P(c1cccs1)c1cccs1
118 to 119	CC(=O)CC(=O)N1c2ccc(C(O)(C(F)(F)F)C(F)(F)F)cc2CC1C (configuration not stated)
172 to 174	Nc1ccc(NC=C(S(=O)(=O)c2ccccc2)S(=O)(=O)c2ccccc2)nc1
156 to 158	CN1C(=O)N(c2ccccc2Br)Cc2cnc(Nc3ccc4c(c3)OCC(CO)O4)nc21 (configuration not stated)
55 to 56	C=Cc1cccc(OC)c1[N+](=O)[O-]
88 to 89	Cc1c(C)c2c(c(C)c1OCc1ccccn1)C(c1ccc(C(C)C)cc1)C(C)(C)O2 (configuration not stated)
110 to 111	COC(=O)[C@@H](CC(C)C)NC(=O)C[C@H]1O[C@H](c2cccc(OC)c2OC)c2cc(Cl)ccc2N(CC(CO)(OC)OC)C1=O
141 to 142	CCC(=O)OCOC(=O)c1cc(S(N)(=O)=O)c(Cl)cc1NCc1ccco1
189	C[C@H]1Cn2c(=O)[nH]c3cc(N)cc(c32)CN1CC1CC1
131	CCOC(=O)c1ccc(OCCC2CN(c3nnc(Br)s3)CCO2)cc1 (configuration not stated)
128 to 130	COc1cc(NC(=O)N2CCOCN2)c(Cl)cc1Cl
106 to 108	O=c1nc(N2CCOCC2)ccn1C1OC(CO)C(O)C1O (configuration not stated)
89 to 90	CN(C)CCNC(=O)c1cccc([N+](=O)[O-])c1
104 to 106	O=c1oc(-c2cccc(OCCc3ccccc3)c2)cc(O)c1SCCc1ccccc1
92	COc1ccc(Oc2ncc(Br)cn2)cc1
220	NC(=O)N1C(=O)C(C(=O)c2ccccc2)c2nc(Cl)ccc21 (configuration not stated)
215 to 220	CCN(CC)C(=O)NC(C)(CC)N=NC(C)(CC)NC(=O)N(CC)CC (configuration not stated)
174	CCCC(=O)Nc1ccc(O)c(C(=O)C=CN(C)C)c1
201 to 203	Cc1ccc(C(=O)Nc2c[nH]nc2C(=O)NCCC#N)cn1
107 to 108	O=C(O)CCc1cn(Cc2ccc(OCc3csc(-c4ccccc4)n3)nc2)nc1-c1ccccc1
96 to 100	O=[N+]([O-])C=C1SCCN1Cc1cccnc1
113 to 114	CN1C(=O)CN(CCc2ccccc2)C1=O
191 to 193	NC(=NCC(F)(F)F)Nc1ccnc(CCCCc2c[nH]cn2)n1
181	COc1cc(OC)nc(NC(=O)NS(=O)(=O)c2ncccc2-c2ccccc2)n1
85	OCCc1ccc(OCc2ccccc2)cc1

melting point [°C]	SMILES
240	Cc1c(O)cccc1C1=N[C@H]([C@H](O)CN2C[C@H]3CCCC[C@H]3C[C@H]2C(=O)NC(C)(C)C)CO1
181 to 183	FC(F)(F)c1cc(Cl)c(Oc2cc(-c3ccc(Cl)cc3)[nH]n2)c(Cl)c1
90	Cn1c(=O)n(Cc2cccnc2)c2ccccc21
195 to 198	Cc1nc(-c2c(F)cccc2F)n[nH]1
91 to 93	CC(C)[C@H]1NC(=O)[C@H]1N (relative stereo)
255	O=C(NCCCCN1CCC(c2c[nH]c3ccccc23)CC1)c1ccc(-c2ccc(C(F)(F)F)cc2)cc1CO
153 to 155	CC(=O)Nc1ccccc1CSc1nccn1-c1ccncc1
170 to 175	Cc1cnc2cc(-c3cn(C)c4ccccc34)[nH]c2n1
60 to 61	COC(=O)C(OC(C(=O)OC)C(=O)OC)C(=O)OC
142 to 146	Cc1ccccc1C(=O)Nc1ccc(C(=O)N2Cc3ccnn3Cc3ccccc32)cc1
189 to 191	CC(=O)c1ccc(NS(C)(=O)=O)c(Oc2ccccc2S(C)(=O)=O)c1
195 to 198	COc1ccc(-n2nc(Sc3ccc(C#N)cc3)c(C)c(C#N)c2=O)cc1
218	CC(C)(C)OC(=O)N1CCC(CNC(=O)c2cc(Cl)c(N)c3c2OCC3)C(O)C1 (configuration not stated)
158 to 160	CC1=C(C(=O)OCc2ccccc2)C(c2cccc([N+](=O)[O-])c2)c2c(ccnc2OC(C)C)N1 (configuration not stated)
206 to 207	CCOC(=O)C1=C(C)NC(C)=C(C#N)C1c1cccc2c1SC(c1ccccc1)=CC2 (configuration not stated)
162 to 164	CC(C)CC1(C(CCN2C(=O)c3ccccc3C2=O)C(=O)NO)CCN(Cc2ccccc2)C1=O (configuration not stated)
144 to 145	COC(=O)C1=C(O)c2c(c3cc(C)ccc3n2C)S(=O)(=O)N1C
135 to 138	CN(CC(=O)O)C(=O)CC1=C(n2nc(-c3c(-c4ccccc4)nn4ccccc34)ccc2=O)CCCC1
142 to 144	CCOP(=O)(Cc1nsc2ccc(-n3c(=O)cc(C(F)(F)F)n(C)c3=O)cc12)OCC
101 to 104	O=c1ccccn1C1=CC(CF)(CF)Oc2ccc(C(F)(F)C(F)(F)C(F)(F)F)cc21
105 to 106	COC(=O)c1cccc(-c2nc(-c3cccc(C(F)(F)F)c3)cs2)c1
108 to 109	C/C(Cl)=C\C(=O)Nc1ccc(C)cc1
54 to 57	Cc1cc(-c2nnn(C)n2)cc(C)c1OCCCCC1Cc2cccnc2N1C (configuration not stated)
139	COC(=O)C1=C(C)NC(C)=C(C(=O)OCC(C)=O)C1c1cccc([N+](=O)[O-])c1 (configuration not stated)
50.5 to 52.5	CCOC(=O)CCc1ccc(C(=O)Cc2ccccc2)cc1

melting point [°C]	SMILES
> 260	O=C1c2ccccc2C(=O)c2sc(-c3ccco3)nc21
129 to 131	O=C(NS(=O)(=O)NCCc1cccs1)OCc1ccccc1
114 to 115	Clc1ccc(OC2CN(C(c3ccccc3)c3ccccc3)C2)cc1Cl
284 to 285	O=c1c(-c2nnn[nH]2)coc2ccccc12
58	COc1ccc(OCCC#N)cc1
< 50	CCOC(=O)CCNC(=O)C(=Cc1ccccc1)CSC(=O)c1ccccc1
228 to 231	O=[N+]([O-])c1cccc(-c2nnc(Nc3cccc(Br)c3)s2)c1
98	CC(C)(C(=O)c1ccc(SCCCCS)cc1)N1CCOCC1
148 to 149	COC1C=C(C)C(=O)CC(C)(C)C1OC(=O)c1ccc([N+](=O)[O-])cc1[N+](=O)[O-] (configuration not stated)
126 to 128	CCCCCS(=O)(=O)NC(=O)OCc1cc(OC(C)C)nn1Cc1ccc(Cl)cc1Cl
114	CC(C)(C)NCCOc1ccccc1CCCc1cccc2[nH]ccc12
104 to 106	Cc1coc2c1C(=O)CC(c1ccccc1)C2 (configuration not stated)
183 to 185	CCOC(=O)c1cn(CCF)c2nc(N3CCN(C(C)=O)CC3)c(F)cc2c1=O
121 to 124	CC(=O)O[C@H]1C[C@@H](n2ccc(N)nc2=O)[C@H](O)[C@@H]1O (racemic)
162 to 163	Cc1nc2cccc(N)c2nc1C
159	NCCCNc1nccc(NC(N)=NCC(F)(F)F)n1
92 to 94.5	O=C(O)CCCC/C=C/c1ccccc1CO
48 to 53	CC(COc1ccc(CC2SC(=O)NC2=O)cc1)N1CC(COc2cccc(Cl)c2)OC1=O (configuration not stated)
141 to 144	COCCNc1cc(Cl)nc(-c2ccc(C)cc2)n1
162	CC(=O)c1ccc(Nc2c(C(=O)NOCCO)ccc(F)c2F)c(Cl)c1
103 to 105	C[C@H](Cn1nnc2ccccc21)n1cnc2cc3c(=O)n(C4CC4)nnc3cc2c1=O
128	CC(C#Cc1ccc(Oc2cccnc2)o1)N(O)C(N)=O (configuration not stated)
198	O=c1[nH]c2cc(C(F)(F)F)ccc2n1C1CCNCC1
97	COc1cccc(CCN2C(=O)c3ccccc3C2(O)c2cccnc2)c1 (configuration not stated)
80 to 83	N=C(OCC1CC1)N1Cc2ccccc2-c2ccccc2C1

melting point [°C]	SMILES
163 to 166	CN1CCNCC(NC(=O)c2n[nH]c3ccccc23)C1 (configuration not stated)
240 to 242	O=C(Cn1c(-c2ccc(Cl)cc2)nc2cccnc21)Nc1ccccc1
162 to 163	Cn1cc(Cl)cc(Br)c1=O
130 to 135	O=C1NCC(c2ccc(Cl)cc2)C1c1ccccc1 (configuration not stated)
160	CCCCc1nc(CO)c(Br)[nH]1
198	CCCCCc1nnc(Sc2cc(O)c(C(C)(C)CC(C)(C)C)cc2O)n1-c1ccccc1
205 to 206	CN1CCC(O)(c2cccc3[nH]ccc23)CC1
81 to 93	COc1cc2c(cc1Nc1ncc(Cl)c(Nc3ccc(N(C)C)cc3S(=O)(=O)C(C)C)n1)CCN(CC(=O)N(C)C)CC2
59 to 61	COc1ccc2c(CC3=C(CC(=O)O)CCC3=O)cccc2c1C(F)(F)F
207 to 209	COc1ccc(-c2ccc(C(C)C)cc2)c(C(=O)Nc2ccc(N3CCN(CC(N)=O)CC3)cc2)c1
100 to 101	CCOC(=O)C(=CN(C)C)C(=O)c1ccc(Br)cc1Cl
115 to 116	O=C(OC(c1ccccc1)c1ccccc1)C1=CCC2CC(=O)C12 (configuration not stated)
114 to 116	CCCN(CCC)CC(=O)OC1CC2(C)C(C#N)CCC2C2CCC3CC(O)CCC3(C)C12 (configuration not stated)
125 to 129	N#CCc1ccc(CC(=O)O)c(S(N)(=O)=O)c1
101 to 106	CC(C)C1SC=CNC1=O (racemic)
124 to 127	COC(=O)C(Cl)Cc1ccc2c(c1)NC(=O)C(Cc1ccccc1)O2 (configuration not stated)
166 to 168	O=C(NCC1CCCCCC1)c1cc(-c2cccnc2C(=O)O)ccc1Cl
101 to 102	O=c1c2c(cnn1CC=Cc1ccccc1)C(Cc1ccccc1)NCCS2 (configuration not stated)
118 to 119	COc1ccc2cc(C#CC(C)(C)O)ccc2c1
271	CCc1ccc2c(=O)cc(C(=O)O)[nH]c2c1
57 to 63	NNc1ccc(Cl)cc1F
224 to 226	Cc1nc2c(C(=O)O)c(C(=O)O)ccc2n1Cc1ccccc1
167	CC(=O)OC1CSC(Oc2cnccc2-c2ccoc2)C(OC(C)=O)C1OC(C)=O (configuration not stated)
87 to 90	O=C(O)C1C2CCC(C2)C1C(F)(F)F (configuration not stated)

SMILES	melting point [°C]
CC1(C)N=C(c2ccccc2F)c2cc(I)ccc2NC1=O	212
CCn1cc(C(=O)O)c(=O)c2c(C)c(F)c(N3CCNCC3)c(F)c21	223 to 225
N#Cc1ccc(N2CCC(CCCO)CC2)c2ccccc12	114 to 115
